Activity calls are given as the source filed them. The calls are words filed in the database; no cut-off is given here.
Key:
[1] = target: T1, C-X-C chemokine receptor type 4 (Homo sapiens, UniProt P61073); assay: Binding affinity to CXCR4 in human MDA-MB-231 cells assessed as increase in thermal stability at 50 to 55 degreeC at 100 nM incubated for 12 hrs by CETSA; format: cell-based
[2] = Toxicity in ip dosed mouse assessed as median lethal dose by Bliss method; format: organism-based; settings: in vivo, read-out: LD
MDA-MB-231 [3] = assay: Inhibition of cell migration in human MDA-MB-231 cells at 100 nM measured after 24 hrs by wound healing based inverted microscopic analysis; format: functional
Mus musculus [4] = assay: Antiinflammatory activity in ip dosed xylene-induced mouse ear swelling model assessed as reduction in ear swelling pretreated with xylene for 30 mins followed by compound addition and measured after 2 hrs; format: functional, organism-based; settings: dose 10-30 mg/kg
MDA-MB-231 [5] = assay: Inhibition of CXCR4/CXCL12-mediated AKT phosphorylation in human MDA-MB-231 cells by Western blot analysis; format: cell-based; settings: dose 0.1-100 nM
MDA-MB-231 [6] = assay: Inhibition of CXCR4/CXCL12 interaction in human MDA-MB-231 cells assessed as reduction in cell invasion at 100 nM measured after 24 hrs by H and E staining based matrix gel invasion assay
Mus musculus [7] = assay: Antiinflammatory activity in xylene-induced mouse ear swelling model assessed as reduction in inflammatory cell infiltration at 10 to 30 mg/kg, ip pretreated with xylene for 30 mins followed by compound addition and measured after 2 hrs by H and E staining based light microscopic analysis; format: functional, organism-based; settings: dose 10-30 mg/kg
MDA-MB-231 [8] = assay: Cytotoxicity against human MDA-MB-231 cells assessed as reduction in cell viability at 10 uM incubated for 24 hrs by MTT assay; format: toxicity, cell-based; settings: mda-mb-231, 24 h
[9] = target: T1, C-X-C chemokine receptor type 4; assay: Inhibition of fluorescently labeled 12G5 antibodies binding to CXCR4 in human MDA-MB-231 cells assessed as change in fluorescence intensity incubated for 3 hrs under dark condition by FACS assay; format: cell-based

T1 sequence (P61073 whole entry): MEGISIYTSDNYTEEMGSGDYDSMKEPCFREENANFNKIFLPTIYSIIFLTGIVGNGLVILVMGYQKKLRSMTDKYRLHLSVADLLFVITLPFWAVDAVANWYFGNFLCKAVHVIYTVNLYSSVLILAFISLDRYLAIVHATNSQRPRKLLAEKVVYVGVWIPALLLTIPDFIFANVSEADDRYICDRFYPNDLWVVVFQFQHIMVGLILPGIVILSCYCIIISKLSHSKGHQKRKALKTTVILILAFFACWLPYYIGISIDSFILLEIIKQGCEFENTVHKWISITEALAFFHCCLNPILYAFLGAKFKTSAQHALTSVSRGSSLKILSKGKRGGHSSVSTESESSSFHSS

With `O=S(=O)(NCC1CCCO1)c1ccc(Oc2ccc(S(=O)(=O)NCC3CCCO3)cc2)cc1` (centres undefined) the Activity [1] was “Active”, the LD50 [2] was 72.6 mg/kg and the inhibition (MDA-MB-231 [3]) was “Active”. For the same compound, the Activity (Mus musculus [4]) was “Dose-Dependent Effect”, the inhibition (MDA-MB-231 [5]) was “Dose-Dependent Effect” and the inhibition (MDA-MB-231 [6]) was “Active”. The Activity (Mus musculus [7]) was “Active”, the Activity (MDA-MB-231 [8]) was “Non-Toxic” and the IC50 [9] was 0.254 µM.

Reference: ChEMBL document CHEMBL5579831, “Discovery of novel CXCR4 inhibitors for the treatment of inflammation by virtual screening and biological evaluation” (Eur J Med Chem, 2024)
